Assay results reported in patent publication US7018989B2, “Chemical compounds” (University College Cardiff Consultants, LTD, priority 1995, dated 2006).
pEC50: −log10 of the molar value. Like-named read-outs stand apart in the source and are kept apart here.

Key:
HIV-1 = assay: microbe, parasite or virus in culture; details: read-out: HIV1 CEM: EC50 for inhibition of HIV-1 in CEM cells
Method: (§1) Cells were infected with HIV-1 as previously described [Balzarini et al. AIDS (1991), 5, 21–28]. Briefly, 5×10^5 cells per milliliter were infected with HIV-1 or HIV-2 at 100 CCID50 (50% cell culture infective dose) per milliliter of cell suspension. Then 100 μL of the infected cell suspension was transferred to microtiter plate wells and mixed with 100 μL of the appropriate dilutions of the test compounds. After 4 days giant cell formation was recorded microscopically in the HIV-infected cell cultures [CEM], and after 5 days the number of viable cells was determined by trypan blue staining of the HIV-infected cell cultures [MT4].
(§2) The data columns are, in order: • HIV1 MT4: EC50 in μM for inhibition of HIV-1 in MT4 cells. • HIV2 MT4: EC50 in μM for inhibition of HIV-2 in MT4 cells. • CC50 MT4: CC50 in μM for toxicity to MT-4 cells. • HIV1 CEM: EC50 in μM for inhibition of HIV-1 in CEM cells. • HIV2 CEM: EC50 in μM for inhibition of HIV-2 in CEM cells. • HIV2 CEM-TK-: EC50 in μM for inhibition of HIV-2 in CEM/TK^− cells. • CC50 CEM: CC50 in μM for toxicity to CEM cells. • EC50 MSV: EC50 in μM for inhibition of MSV • MCC MSV: Minimum cytotoxic concentration in MSV assay

HIV-2 [1] = assay: Inhibition of HIV-2 in CEM cells (giant cell formation); assay type: cell-based; details: read-out: HIV2 CEM: EC50 for inhibition of HIV-2 in CEM cells
Method: as §1, §2

HIV-2 [2] = assay: Inhibition of HIV-2 in CEM/TK- cells; assay type: cell-based
Method: as §1, §2

CEM cells = assay: Toxicity to CEM cells; assay type: cell-based, human
Method: as §1, §2

MSV = assay: Inhibition of MSV (in vitro); assay type: cell-based, Moloney Sarcoma Virus
From the text: as §2

[3] = Minimum cytotoxic concentration in MSV assay; assay type: cell-based
From the text: The data columns are, in order: • HIV1 MT4: EC50 in μM for inhibition of HIV-1 in MT4 cells. • HIV2 MT4: EC50 in μM for inhibition of HIV-2 in MT4 cells. • CC50 MT4: CC50 in μM for toxicity to MT-4 cells. • HIV1 CEM: EC50 in μM for inhibition of HIV-1 in CEM cells. • HIV2 CEM: EC50 in μM for inhibition of HIV-2 in CEM cells. • HIV2 CEM-TK-: EC50 in μM for inhibition of HIV-2 in CEM/TK^- cells. • CC50 CEM: CC50 in μM for toxicity to CEM cells. • EC50 MSV: EC50 in μM for inhibition of […]: Minimum cytotoxic concentration in MSV assay

[4] = Table 6, mean of two or more repeat experiments
[5] = Table 6, mean of two or more repeat experiments, read-out: HIV2 CEM-TK-: EC50 for inhibition of HIV-2 in CEM/TK^− cells

Structure (SMILES) | pEC50 (HIV-1; [4]) | pEC50 (HIV-2 [1]; [4]) | pEC50 (HIV-2 [2]; [5]) | CC50 (CEM cells; [4]) [µM] | pEC50 (MSV; Table 6) | MCC MSV: Minimum cytotoxic concentration in MSV assay ([3]; Table 6) | pEC50 (HIV-1; CEM cells, HIV-1) | pEC50 (HIV-2 [1]; CEM cells, HIV-2) | pEC50 (HIV-2 [2]; CEM/TK- cells, HIV-2, read-out: HIV2 CEM-TK-: EC50 for inhibition of HIV-2 in CEM/TK- cells) | CC50 (CEM cells; CEM cells) [µM] | pEC50 (MSV; MSV) | MCC MSV: Minimum cytotoxic concentration in MSV assay ([3]; MSV assay)
COC(=O)[C@@H](C)NP(=O)(OCC1C=CC(n2cc(C)c(=O)[nH]c2=O)O1)Oc1ccccc1 (stereo partly shown) [Compound 932] | 5.52 | 5.70 | 5.60 | > 250 | ≤ 4.00 | >100 |  |  |  |  |  | 
Cc1cn(C2C=CC(COP(=O)(Oc3ccccc3)N3CCCC3C(=O)OCc3ccccc3)O2)c(=O)[nH]c1=O (stereo not shown) [Compound 933] | 4.46 | 4.90 | < 4.30 | 92 | < 4.00 | >100 |  |  |  |  |  | 
CCOC(=O)CCNP(=O)(OCC1C=CC(n2cc(C)c(=O)[nH]c2=O)O1)Oc1ccccc1 (stereo not shown) [Compound 950] | 3.60 | ≤ 3.60 | < 3.60 | > 250 | < 4.00 | >100 |  |  |  |  |  | 
CCOC(=O)C(C)NP(=O)(OCC1C=CC(n2cc(C)c(=O)[nH]c2=O)O1)Oc1ccccc1 (stereo not shown) [Compound 951] | 7.00 | 7.15 |  | 55 | 4.60 | >100 |  |  |  |  |  | 
COC(=O)COP(=O)(OCC1C=CC(n2cc(C)c(=O)[nH]c2=O)O1)Oc1ccccc1 (stereo not shown) [Compound 980] | 4.56 | 4.30 | < 3.60 | > 250 | < 4.00 | >100 |  |  |  |  |  | 
CCOC(=O)COP(=O)(OCC1C=CC(n2cc(C)c(=O)[nH]c2=O)O1)Oc1ccccc1 (stereo not shown) [Compound 981] | 4.90 | 4.90 | 3.82 | ≥ 250 | < 4.00 | >100 |  |  |  |  |  | 
COC(=O)C(OP(=O)(OCC1C=CC(n2cc(C)c(=O)[nH]c2=O)O1)Oc1ccccc1)c1ccccc1 (stereo not shown) [Compound 982] | 5.77 | 6.19 | 4.82 | 94 | 4.85 | >100 |  |  |  |  |  | 
COC(=O)CC(NP(=O)(OCC1C=CC(n2cc(C)c(=O)[nH]c2=O)O1)Oc1ccccc1)C(=O)OC (stereo not shown) [Compound 1078] | 6.26 | 6.19 | 6.48 | 209 | 4.50 | >100 |  |  |  |  |  | 
Cc1cn(C2C=CC(COP(=O)(O)NC(CC(=O)O)C(=O)O)O2)c(=O)[nH]c1=O (stereo not shown) [Compound 1079] | 5.80 | 5.60 | 4.15 | ≥ 250 | 5.03 | >100 |  |  |  |  |  | 
COC(=O)CCC(NP(=O)(OCC1C=CC(n2cc(C)c(=O)[nH]c2=O)O1)Oc1ccccc1)C(=O)OC (stereo not shown) [Compound 1081] | 5.10 | 5.27 | 4.80 | ≥ 250 | 4.05 | >100 |  |  |  |  |  | 
Cc1cn(C2C=CC(COP(=O)(O)NC(CCC(=O)O)C(=O)O)O2)c(=O)[nH]c1=O (stereo not shown) [Compound 1083] | 5.07 | 5.26 | < 3.60 | ≥ 250 | 4.26 | >100 |  |  |  |  |  | 
COC(=O)C(C)NP(=O)(OC[C@@H]1CC[C@H](n2cnc3c(N)ncnc32)O1)Oc1ccccc1 (stereo partly shown) [Compound 1093, 2′,3′-dideoxy Adenosine 5′-(phenylmethoxyalaninyl) phosphoramidate] |  |  |  |  |  |  | 7.80 | 7.46 | 7.26 | 2.57 | 5.71 | >20
Cc1cn(C2C=CC(COP(=O)(O)N[C@H](C)C(=O)O)O2)c(=O)[nH]c1=O (stereo partly shown) [Compound 1095] | 5.89 | 5.80 | 5.00 | > 250 | 6.38 | >100 |  |  |  |  |  | 
COC(=O)C(C)NP(=O)(O)OCC1C=CC(n2cc(C)c(=O)[nH]c2=O)O1 (stereo not shown) [Compound 1129] | 5.70 | 5.35 | 4.30 | > 250 | 4.32 | >100 |  |  |  |  |  | 
Cc1cn(C2C=CC(COP(=O)(O)O)O2)c(=O)[nH]c1=O (stereo not shown) [Compound 1131] | 6.40 | 6.22 | 4.30 | ≥ 250 | 5.17 | >100 |  |  |  |  |  | 
CCOC(=O)CN(C)P(=O)(OC[C@@H]1C=C[C@H](n2cc(C)c(=O)[nH]c2=O)O1)Oc1ccccc1 (stereo partly shown) [Compound 1133, 2′,3′-dideoxy-2′,3′-didehydrothymidine 5′-(phenylethoxysarcosinyl phosphate)] | 4.12 | 4.06 | < 3.60 | ≥ 250 | < 4.00 | >100 |  |  |  |  |  | 
COP(=O)(NC(C)C(=O)OCc1ccccc1)OCC1C=CC(n2cc(C)c(=O)[nH]c2=O)O1 (stereo not shown) [Compound 1135] | 5.00 | 4.82 | 4.76 | > 250 | < 4.00 | >100 |  |  |  |  |  | 
Cc1cn(C2C=CC(COP(=O)(O)NC(C)C(=O)OCc3ccccc3)O2)c(=O)[nH]c1=O (stereo not shown) [Compound 1137] | 6.02 | 5.80 | 5.10 | ≥ 250 | 4.80 | >100 |  |  |  |  |  | 
CSCC[C@H](NP(=O)(O)OC[C@@H]1C=C[C@H](n2cc(C)c(=O)[nH]c2=O)O1)C(=O)O [Compound 1156, 2′,3′-dideoxy-2′,3′-didehydrothymidine 5′-(methioninyl phosphate)] | 5.90 | 6.15 | 4.30 | > 250 | 4.79 | >100 |  |  |  |  |  | 
COC(=O)C(Cc1ccccc1)NP(=O)(OCC1OC(n2cc(C)c(=O)[nH]c2=O)CC1N=[N+]=[N-])Oc1ccccc1 (stereo not shown) [Cpd 941] |  |  |  |  |  |  | < 4.30 | < 4.30 |  | 115 | < 4.00 | >100
